The source of these data is patent US6339044B1, “N-P-Cyanoaryl nitrogen-containing heterocycles having pendent sulfur-containing groups” (Bayer Aktiengesellschaft, priority 1993, dated 2002).

One series concerns Veronica. As to the kind of experiment: Post-emergence test, Veronica. The format is in vivo. The note with it: 30 g per hectare, after three weeks. The procedure:
(§1) To prepare an expedient active compound preparation, 1 part by weight of active compound is mixed with the specified amount of solvent, the specified amount of emulsifier is added and the concentrate is diluted with water to the desired concentration.
(§2) Test plants which have a height of 5-15 cm are sprayed with the active compound preparation in such a way that the amounts of active compound per unit area desired in each case are applied. After three weeks, the degree of damage of the plants is evaluated in % damage in comparison with the development of the untreated control.
(§3) 0% denotes no effect (as untreated control)
(§4) 100% denotes total destruction

Another series deals with Chenopodium. As to the kind of experiment: Post-emergence test, Chenopodium. In kind it is in vivo. Conditions: 30 g per hectare, after three weeks. The procedure: as §1, §2, §3, §4
A further series relates to Abutilon. As to the kind of experiment: Post-emergence test, Abutilon. In kind it is in vivo. The note with it: 30 g per hectare, after three weeks. On the procedure: as §1, §2, §3, §4
Series [1] relates to horseradish leaf beetle larvae Phaedon cochleariae. As to the kind of experiment: Phaedon larvae test. The format is in vivo. Conditions: after 3 days, active compound concentration 0.1%, cabbage leaves dipped. On the procedure:
Solvent: 7 parts by weight of dimethylformamide
Emulsifier: 1 part by weight of alkylaryl polyglycol ether
To produce an expedient active compound preparation, 1 part by weight of active compound is mixed with the specified amount of solvent and the specified amount of emulsifier and the concentrate is diluted with water to the desired concentration.
Cabbage leaves (Brassica oleracea) are treated by dipping them into the active compound preparation of the desired concentration and populated with horseradish leaf beetle larvae Phaedon cochleariae, as long as the leaves are still moist.
After the desired time, the destruction is determined in %. In the determination, 100% denotes that all beetle larvae have been destroyed; 0% denotes that no beetle larvae have been destroyed.

The test system of another series is Ipomoea. As to the kind of experiment: Post-emergence test, Ipomoea. The format is in vivo. Conditions: 30 g per hectare, after three weeks. On the procedure: as §1, §2, §3, §4
A further series relates to Solanum. As to the kind of experiment: Post-emergence test, Solanum. In kind it is in vivo. Conditions: 30 g per hectare, after three weeks. The procedure:
as §1, §2, §3, §4

Series [2] has as its system wheat. As to the kind of experiment: Pre-emergence test, wheat. The format is in vivo. The note with it: 60 g per hectare, after three weeks, cultivated plant. The procedure: as §1
Seeds of the test plants are sown in standard soil and are watered after 24 hours with the active compound preparation. The amount of water per unit area is expediently kept constant during this. The active compound concentration in the preparation is not important, only the application rate of the active compound per unit area is critical. After three weeks, the degree of damage of the plants is evaluated in % damage in comparison with the development of the untreated control. In the evaluation:
as §3, §4

For series [3], the system named is wheat. As to the kind of experiment: Post-emergence test, wheat. The format is in vivo. The note with it: 30 g per hectare, after three weeks, cultivated plant. On the procedure: as §1, §2, §3, §4

For the compound `Cn1c(C(F)(F)F)cc(=O)n(-c2cc(F)c(C#N)cc2F)c1=S` [Example 3, 1-(4-cyano-2,5-difluoro-phenyl)-3,6-dihydro-2-thioxo-6-oxo-3-methyl-4-trifluoromethyl-1(2H)-pyrimidine], in the series on Veronica, the “degree of damage of the plants in % damage, Veronica” value turned out to be 100%. Also, the “degree of damage of the plants in % damage, Chenopodium” value in the series on Chenopodium came to 100%. The “degree of damage of the plants in % damage, Abutilon” value in the series on Abutilon is given as 100%. In addition, the degree of destruction in [1] was 100%. Also, in the series on Ipomoea, the “degree of damage of the plants in % damage, Ipomoea” value is given as 100%. For the same compound, the “degree of damage of the plants in % damage, Solanum” value in the series on Solanum was 100%. Further, the “degree of damage of the plants in % damage, wheat” value turned out to be 0% in the series with wheat [2] and 5% in the series on wheat [3].

On to `CCS(=O)(=O)Nc1cc(-n2c(=O)cc(C(F)(F)F)n(C)c2=S)c(F)cc1C#N` [Example 4, 1-(4-cyano-2-fluoro-5-ethylsulphonylamino-phenyl)-3,6-dihydro-2-thio-6-oxo-3-methyl-4-trifluoromethyl-1(2H)-pyrimidine], for which the “degree of damage of the plants in % damage, Veronica” value with Veronica was found to be 100%. In addition, the “degree of damage of the plants in % damage, Chenopodium” value in the series on Chenopodium was 100%. The “degree of damage of the plants in % damage, Abutilon” value with Abutilon was determined as 100%. In addition, the “degree of damage of the plants in % damage, Ipomoea” value in the series on Ipomoea is given as 100%. In addition, the “degree of damage of the plants in % damage, Solanum” value with Solanum is listed as 100%. Also, the “degree of damage of the plants in % damage, wheat” value with wheat [2] is recorded as 0%; in the series with wheat [3] it was 5%.

The melting point is the temperature of the solid-liquid transition. In turn, `CCS(=O)(=O)N(C)c1cc(-n2c(=O)cc(C(F)(F)F)n(C)c2=S)c(F)cc1C#N` [Example 33, 1-(4-cyano-2-fluoro-5-(N-ethylsulphonyl-N-methyl-amino)-phenyl)-3,6-dihydro-2-thio-6-oxo-3-methyl-4-trifluoromethyl-1(2H)-pyrimidine] had a melting point of 68 °C.

As for `CCS(=O)(=O)N(c1cc(-n2c(=O)cc(C(F)(F)F)n(C)c2=S)c(F)cc1C#N)S(C)(=O)=O` [Example 32, 1-(4-cyano-2-fluoro-5-(N-ethylsulphonyl-N-methylsulphonyl-amino)-phenyl)-3,6-dihydro-2-thio-6-oxo-3-methyl-4-trifluoromethyl-1(2H)-pyrimidine], the melting point worked out at 122 °C.
